Experimental findings from ChEMBL document CHEMBL3507680, “University of Dundee, Gates Library screen for HepG2 cell viability” are described below.

This series is described as follows: Human HepG2 cell viability assay in 384 well format. The conditions noted are these: HepG2 cells, read-out: Inhibition. It counts as toxicity, cell-based. Also on record: dose 125 nL, time 70.5 hour; concentration not given beside the values.
`CCCc1nc(C)c(C(=O)NCCn2ccnc2)s1`: the cytotoxicity at 70.5 h was -7.16%.

Regarding `COCCNc1cc(C(=O)N2CCOCC2)nc(C)n1`, the cytotoxicity at 70.5 h amounted to 0.483%.

Regarding `CCOC(=O)CC1CCCCN1C(=O)c1cc(C)on1` (stereo unspecified), the cytotoxicity at 70.5 h is -8.65%.

Turning to `CCn1cc(NC(=O)NCC(C)N(C)C2CC2)cn1` (stereo unspecified), the cytotoxicity at 70.5 h was -4.71%.

On to `Cc1ccc(CC(=O)N2CCCC(c3nccs3)C2)cn1` (stereo unspecified), for which the cytotoxicity at 70.5 h is -4.34%.

With `COC(=O)[C@H]1C[C@@H](O)CCN1S(=O)(=O)c1cc(C)c(Cl)cc1C`, the cytotoxicity at 70.5 h worked out at 0.229%.

Turning to `Cc1cc2nc(SCC(=O)N3CCCCC3)n(C)c(=O)c2[nH]1`, the cytotoxicity at 70.5 h came to 19.2%.

Take `OCCCN1CCc2[nH]nc(C(c3ccccc3)c3ccccc3)c2C1`: the cytotoxicity at 70.5 h is -3.77%.

For the compound `CCc1nc(CN2CCCN(c3cnc4ccccc4n3)CC2)no1`, the cytotoxicity at 70.5 h is -2.11%.

With `O=S(=O)(NC1=NCN(CCc2cccs2)CN1)c1ccc(F)cc1`, the cytotoxicity at 70.5 h was -20.8%.

For the compound `Nc1nc2c(c(N3CCC(CN4CCCC4=O)CC3)n1)CCNCC2`, the cytotoxicity at 70.5 h is -8.27%.

Regarding `O=C(NCc1ccnc(OCC(F)(F)F)c1)NCC1CCCO1` (stereo unspecified), the cytotoxicity at 70.5 h was determined as 0.67%.

Take `O=C(CN1CCOC(Cn2cccn2)C1)Nc1cccnc1` (stereo unspecified): the cytotoxicity at 70.5 h is 31.9%.

Turning to `COCCn1c(-c2cccc(OC)c2)cnc1NC(=O)NCCC(C)C`, the cytotoxicity at 70.5 h was -12.5%.

For the compound `COc1cccc(-c2cc(C(=O)NCCCC(F)(F)F)[nH]n2)c1`, the cytotoxicity at 70.5 h came to 30.9%.

In the case of `CC(C)[C@@H](C)NC1CCN(c2ccc(-n3ccnc3)cc2)CC1`, the cytotoxicity at 70.5 h is -12.5%.

Consider `Cc1nccn1CCC1CCCCN1Cc1ccc2c(c1)OCCO2` (stereo unspecified), for which the cytotoxicity at 70.5 h was 14.5%.

For `Cc1nn(C)c2cn(C(C)C(=O)NCc3ccccn3)nc12` (stereo unspecified), the cytotoxicity at 70.5 h was -11.2%.

Take `NC(=O)COc1cccc(C(=O)NCc2ccc(Cl)s2)c1`: the cytotoxicity at 70.5 h is -11.8%.

As for `CCNC(=O)Nc1ncc(-c2cccnc2)s1`, the cytotoxicity at 70.5 h is -6.64%.

Consider `CN(Cc1ccco1)C(=O)CN1CCc2ccccc2C1`, for which the cytotoxicity at 70.5 h was -7.16%.

Turning to `COc1ccc(CN(CC2CCCO2)C(=O)CN2CCCCC2=O)cc1` (stereo unspecified), the cytotoxicity at 70.5 h is -12.9%.

On to `CCNC(=O)[C@@H]1C[C@H](NC(=O)c2cc(=O)[nH]c3ccc(C)cc23)CN1C`, for which the cytotoxicity at 70.5 h is -7.81%.

With `CC(C)COC(=O)N1CC(=O)N(CCc2ccccc2)CC(O)C1` (stereo unspecified), the cytotoxicity at 70.5 h is 25.4%.

Turning to `Cc1nnnn1-c1ccc(CC(=O)N2CCOCC(O)C2)cc1` (stereo unspecified), the cytotoxicity at 70.5 h is -6.4%.

`CC(C)N(C)C(=O)C1CCC(=O)N(CCc2cccc(F)c2)C1` (stereo unspecified): the cytotoxicity at 70.5 h was -3.96%.

On to `CCOCC1CN(C(=O)c2ccco2)Cc2cnn(CC)c21` (stereo unspecified), for which the cytotoxicity at 70.5 h worked out at 12.3%.

In the case of `CC(C)c1csc(C2CCCN(C(=O)c3ccc(=O)n(C)n3)C2)n1` (stereo unspecified), the cytotoxicity at 70.5 h came to 1.7%.

Regarding `c1cc(-c2nccn2CCc2nc3c(s2)CCC3)ccn1`, the cytotoxicity at 70.5 h came to 12.9%.

As to `Cc1c(CNC(=O)NCc2cccc(-n3cncn3)c2)cnn1C`, the cytotoxicity at 70.5 h was -5.57%.

As for `O=C(c1ccc[nH]1)N1CCCC2(CCCN2Cc2cccnc2)C1` (stereo unspecified), the cytotoxicity at 70.5 h is 11.9%.

Turning to `c1ccc(OCCCN2CCOC(CNc3cccnn3)C2)cc1` (stereo unspecified), the cytotoxicity at 70.5 h is -6.97%.

Consider `CS(=O)(=O)N1CCc2c(nnn2CC2CC2)C1COCC1CC1` (stereo unspecified), for which the cytotoxicity at 70.5 h was -1.97%.

As for `COc1c(CNCc2ccc(CN3CCOCC3)cc2)c(C)nn1C`, the cytotoxicity at 70.5 h came out at 5.61%.

On to `Cc1ccoc1C(=O)N1CC[C@@H]2O[C@@H](C)C[C@H]2C1`, for which the cytotoxicity at 70.5 h amounted to 0.684%.

For the compound `Cc1nc(C)c(C(=O)N2CCCc3c(F)cccc32)o1`, the cytotoxicity at 70.5 h is -5.01%.

`CN1[C@H]2CC[C@@H]1CN(c1nc(-c3ccncc3)nc3c1cnn3C)CC2`: the cytotoxicity at 70.5 h is -2.38%.

With `CO[C@H]1CCN(c2nnc(C)s2)C[C@@H]1Cc1cccc(C)c1`, the cytotoxicity at 70.5 h is 7.81%.

Take `Cc1nn2cc(CNc3nccc(CCC(F)(F)F)n3)nc2s1`: the cytotoxicity at 70.5 h is -9.54%.

Regarding `O=C(CCc1ccccn1)NC1CCCN(C2Cc3ccccc3C2)C1` (stereo unspecified), the cytotoxicity at 70.5 h was -8.7%.

As to `Cn1c(C(=O)N2CCc3[nH]cnc3C2C(=O)O)ccc1-c1ccccc1` (stereo unspecified), the cytotoxicity at 70.5 h was -2.27%.

Turning to `O=C(NCCCO)C1(N2CCCCC2)Cc2ccccc2C1`, the cytotoxicity at 70.5 h is -10.2%.

For the compound `COc1cccc(N2CCN(C(=O)CN(C)c3cnccn3)CC2)c1`, the cytotoxicity at 70.5 h is -1.38%.

Turning to `O=C(c1cnc(-c2cccnc2)nc1)N1CCC(c2ccncc2)CC1`, the cytotoxicity at 70.5 h was -5.85%.

Turning to `O=C(CC(F)(F)F)NCC(O)c1ccc2ccccc2c1` (stereo unspecified), the cytotoxicity at 70.5 h was -3.75%.

In the case of `Cc1cccc(-c2noc(CN3CCCCC3Cn3cncn3)n2)c1` (stereo unspecified), the cytotoxicity at 70.5 h was -6.45%.

As to `Cc1nn(C)c(C)c1C1CCCN1c1ncnc2c1CCC2` (stereo unspecified), the cytotoxicity at 70.5 h stood at 1.18%.

In the case of `COc1ccccc1CC1CCN(C(=O)CCc2ccccn2)CC1`, the cytotoxicity at 70.5 h was -8.07%.

As for `COc1ccc(C(=O)N2CCOc3ccncc32)cc1`, the cytotoxicity at 70.5 h was -1.92%.

For `Cc1c(CN(C)C(=O)c2ccnn2C)cnn1C`, the cytotoxicity at 70.5 h was 6.18%.

For the compound `O=C(c1cccc2ccnn12)N1CCCC1Cn1cccn1` (stereo unspecified), the cytotoxicity at 70.5 h was -2.56%.

As for `Cc1ncccc1Oc1nccnc1C1CCCN(C(C)C)C1` (stereo unspecified), the cytotoxicity at 70.5 h was -6.39%.

With `O=C(C1CCC1)N1CCC(C(=O)N2CCC(c3ccc(F)cc3)C2)CC1` (stereo unspecified), the cytotoxicity at 70.5 h amounted to 3.33%.

For `Cc1nccc(N2CC[C@@H]3[C@@H](CCC(=O)N3CCc3ccccc3)C2)n1`, the cytotoxicity at 70.5 h was -6.49%.

For `CCc1nc(C)cn1C(=O)Nc1ccc(C)cc1`, the cytotoxicity at 70.5 h is -1.55%.

On to `CC(C)N1C[C@H](NC(=O)c2coc(COc3cccc(F)c3)n2)[C@@H](O)C1`, for which the cytotoxicity at 70.5 h was 2.02%.

`CCC(C)[C@H](N)c1nnc(SCC(=O)Nc2cc(C)ccc2C)o1` (stereo partly specified): the cytotoxicity at 70.5 h is -1.84%.

In the case of `Cc1noc(C2CCN(C(=O)c3cc(Br)ccc3F)CC2)n1`, the cytotoxicity at 70.5 h is -2.54%.

With `CN(C)C(=O)CN1CCC2(CCCN(Cc3ccoc3)C2)C1=O` (stereo unspecified), the cytotoxicity at 70.5 h was -13.2%.

For the compound `NC(=O)NC1(C(=O)N2CCc3c(Cl)cccc3C2)CCCCC1`, the cytotoxicity at 70.5 h was determined as 8.62%.

For `Cc1ccc(NC2CCN(C(=O)CCc3ccco3)CC2)nn1`, the cytotoxicity at 70.5 h is -9.84%.

`O=C(c1cccnc1)N1CCC2(CNS(=O)(=O)c3cnccc3O2)C1` (stereo unspecified): the cytotoxicity at 70.5 h stood at 17.8%.

Take `CN1CCN(CCCNS(=O)(=O)Cc2ccccc2F)CC1`: the cytotoxicity at 70.5 h is -0.252%.

For `COc1ccc(-c2ccc(C(=O)NCCCC(N)=O)c(F)c2)c(F)c1`, the cytotoxicity at 70.5 h was -3.05%.

Take `Cn1c(CN2CCCc3cc(F)cc(F)c32)cc(=O)n(C)c1=O`: the cytotoxicity at 70.5 h was -4.68%.

As to `COc1cc(C)nc(N2CCN(C(=O)c3ccc(Cl)o3)CC2)n1`, the cytotoxicity at 70.5 h is -7.01%.

In the case of `CCc1cc(O)n2nc(C3CCN(C(=O)c4ccccn4)CC3)cc2n1`, the cytotoxicity at 70.5 h is -0.453%.

Consider `CC(C(=O)NC1CC1)S(=O)(=O)Cc1nc(Cc2ccccc2)no1` (stereo unspecified), for which the cytotoxicity at 70.5 h is -0.763%.

For the compound `CC(C)Nc1nc(C(=O)Nc2ccccn2)cs1`, the cytotoxicity at 70.5 h is -13.8%.

As for `Cc1n[nH]c(-c2ccc(NC(=O)C(C)(C)N3CCN(C)CC3)cc2)n1`, the cytotoxicity at 70.5 h was -7.96%.

For the compound `Cn1cc(N2C(=O)C[C@@H]3[C@@H]2CCN3C(=O)c2ccco2)cn1`, the cytotoxicity at 70.5 h is -6.04%.
